Source: the supplement of paper PMC10307832

How the values were obtained:
Test in all cases: relative viability (nuclei count vs DMSO), 5 days (fraction); higher = more cells survive
[1] = compound: O=C(Nc1c[nH]nc1-c1nc2ccc(CN3CCOCC3)cc2[nH]1)NC1CC1 [AT9283] + CS(=O)(=O)CCNCc1ccc(-c2ccc3ncnc(Nc4ccc(OCc5cccc(F)c5)c(Cl)c4)c3c2)o1 [Lapatinib] (partner 2 µM)
Summary of the method: (§1)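 Lung cancer cell lines, seeded in 1536-well plates, were treated the following day by pin tool with a single drug or with five library-drug doses (not always all listed) in √10 steps on top of a fixed anchor-drug dose. Cells were fixed and nuclei stained in one step after 5 days, and nuclei were counted. Relative viability is the nuclei count for treated wells divided by that for vehicle wells, reported as medians of duplicate plates.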

[2] = compound: O=C(Nc1c[nH]nc1-c1nc2ccc(CN3CCOCC3)cc2[nH]1)NC1CC1 [AT9283] + N=C(N)NC(=N)NCCc1ccccc1 [Phenformin] (partner 250 µM)
Summary of the method: as §1

[3] = compound: C#Cc1cccc(Nc2ncnc3cc(OCCOC)c(OCCOC)cc23)c1 [Erlotinib] + CS(=O)(=O)N1CCN(Cc2cc3nc(-c4cccc5[nH]ncc45)nc(N4CCOCC4)c3s2)CC1 [Pictilisib] (partner 1 µM)
Summary of the method: as §1

[4] = compound: C#Cc1cccc(Nc2ncnc3cc(OCCOC)c(OCCOC)cc23)c1 [Erlotinib] + C[C@@H](Oc1cc(-c2cnn(C3CCNCC3)c2)cnc1N)c1c(Cl)ccc(F)c1Cl [Crizotinib] (partner 1 µM)
Summary of the method: as §1

[5] = compound: O=C(Nc1c[nH]nc1-c1nc2ccc(CN3CCOCC3)cc2[nH]1)NC1CC1 [AT9283] + CC(=O)c1c(C)c2cnc(Nc3ccc(N4CCNCC4)cn3)nc2n(C2CCCC2)c1=O [Palbociclib] (partner 0.5 µM)
Summary of the method: as §1

Cell Line | relative viability ([1]; first compound 0.003 µM) | relative viability ([1]; first compound 0.03 µM) | relative viability ([1]; first compound 0.09487 µM) | relative viability ([1]; first compound 0.3 µM) | relative viability ([2]; first compound 0.003 µM) | relative viability ([2]; first compound 0.03 µM) | relative viability ([2]; first compound 0.09487 µM) | relative viability ([2]; first compound 0.3 µM) | relative viability ([3]; first compound 0.02 µM) | relative viability ([3]; first compound 0.2 µM) | relative viability ([3]; first compound 0.6325 µM) | relative viability ([3]; first compound 2 µM) | relative viability ([4]; first compound 0.02 µM) | relative viability ([4]; first compound 0.2 µM) | relative viability ([4]; first compound 0.6325 µM) | relative viability ([4]; first compound 2 µM) | relative viability ([5]; first compound 0.003 µM) | relative viability ([5]; first compound 0.03 µM) | relative viability ([5]; first compound 0.09487 µM) | relative viability ([5]; first compound 0.3 µM)
NCI-H1563 | 0.941 | 0.811 | 0.843 | 0.701 | 0.638 | 0.663 | 0.605 | 0.556 | 0.63 | 0.706 | 0.679 | 0.636 | 0.85 | 0.845 | 0.802 | 0.804 | – | – | – | –
HCC-366 | 1.01 | 0.0702 | 0.0449 | 0.0374 | 0.609 | 0.657 | 0.0853 | 0.0845 | 0.185 | 0.0789 | 0.12 | 0.137 | 0.49 | 0.524 | 0.736 | 0.502 | 0.373 | 0.309 | 0.157 | 0.101
SW 1573 | 1.15 | 0.494 | 0.188 | 0.244 | 0.426 | 0.163 | 0.156 | 0.121 | 0.525 | 0.482 | 0.62 | 0.419 | 0.88 | 0.814 | 0.864 | 0.646 | 0.333 | 0.158 | 0.173 | 0.121
LOU-NH91 | 0.688 | 0.646 | 0.566 | 0.419 | 0.658 | 0.673 | 0.454 | 0.371 | 0.471 | 0.505 | 0.465 | 0.475 | 0.601 | 0.54 | 0.55 | 0.499 | 0.552 | 0.515 | 0.418 | 0.439
NCI-H1299 | 1.02 | 0.509 | 0.404 | 0.343 | – | – | – | – | 0.894 | 0.839 | 0.918 | 0.55 | 0.989 | – | 0.988 | 0.965 | – | – | – | –
HCC-44 | 0.922 | 0.641 | 0.23 | 0.188 | 0.124 | 0.169 | 0.106 | 0.0704 | 0.662 | 0.696 | 0.752 | 0.523 | 0.797 | 0.895 | 0.843 | 0.798 | 0.992 | 1 | 0.557 | 0.698
NCI-H1437 | 0.702 | 0.246 | 0.157 | 0.155 | 0.294 | 0.263 | 0.149 | 0.127 | 0.431 | 0.408 | 0.482 | 0.347 | 1.01 | 1.02 | 1.12 | 0.883 | 0.319 | 0.354 | 0.206 | 0.193
H3255 | 0.22 | 0.258 | 0.173 | 0.159 | 0.403 | 0.328 | 0.273 | 0.255 | 0.497 | 0.159 | 0.118 | 0.0937 | 0.999 | 0.509 | 0.305 | 0.136 | 0.337 | 0.316 | 0.323 | 0.284
Calu-6 | 1.1 | 0.33 | 0.245 | 0.27 | – | – | – | – | 0.94 | 0.856 | 0.913 | 0.817 | 0.931 | 0.719 | 0.853 | 0.714 | – | – | – | –
